Results published in patent US20230312646A1, “ANTIBACTERIAL PEPTIDES” (priority 2020, published 2023).
Numbered stars: 1 amine (or outer) side, 2 acyl side, 3 side chain; on linkers, the order of the positions; unused ones are H or OH. Square brackets hold non-standard residues; d marks the D form. Peptide text beside a SMILES is read from it. * marks the point of attachment. ξ: configuration not given here. Acryloyl(3-(3-pyridyl),E) = O=C(/C=C/c1cccnc1)*; Phe(3,4-Cl2) = N[C@@H](Cc1ccc(Cl)c(Cl)c1)C(=O)O; Phe(3,4-F2) = N[C@@H](Cc1ccc(F)c(F)c1)C(=O)O; Oic = O=C(O)[C@@H]1C[C@@H]2CCCC[C@@H]2N1; Cinnamoyl(4-F) = O=C(/C=C/c1ccc(F)cc1)*; NH(4-MeO-phenyl) = COc1ccc(N*)cc1; Cha = N[C@@H](CC1CCCCC1)C(=O)O; NMeD = CN[C@@H](CC(=O)O)C(=O)O; ξOic = O=C(O)C1CC2CCCCC2N1; X6 = O=C(/C=C/c1ccccc1)*; CO = O=C([*:1])[*:2]

Target: T1, Escherichia coli SC (^EcSC) (Escherichia coli, UniProt P0A988)
T1 construct: His tag (inferred from the pET15b vector and Ni-NTA purification) (N); made in house; host or cells: E. coli
Assay: biochemical
Format: binding
Conditions: for ΔG (kcal mol^-1): ITC at 25° C.; for Kd: Kd (nM), ITC at 298.15 K (25° C.); for kon: read-out: kon (M^-1 s^-1)
Method: The procedure has been described previously (Wolff, P.; Oliéric, V.; Briand, J. P.; Chaloin, O.; Dejaegere, A.; Dumas, P.; Ennifar, E.; Guichard, G.; Wagner, J.; Burnouf, D. Y., Structure-Based Design of Short Peptide Ligands Binding onto the E. coli Processivity Ring. J. Med. Chem. 2011, 54 (13), 4627-4637). Briefly, E.coli cells were transformed with plasmids pET15b containing the dnaN gene from E. coli and were grown in LB at 37° C. to OD 0.5, then induced by IPTG (0.1 mM) at 28° C. overnight. dnaN proteins fractions were first enriched on a Ni-NTA column, eluted with a histidine step (300 mM) and further purified on a Source Q column in buffer containing 20 mM Tris HCI pH 7.5, 0.5 mM EDTA and 10% (v/v) glycerol, using a gradient from 0 to 0.5 M NaCl. After a final ultracentrifugation (45 K, 1 h, 20° C.), soluble proteins were concentrated on a Centricon 30 K (Millipore) in the same buffer and stored at 4° C. in 2 M ammonium sulfate. Buffer exchange was performed on Centrikon 10 K at 4° C. before use and protein quality was assessed by DLS.
ITC experiments were performed using an iTC200 or a PEAQ-ITC instrument (Microcal Malvern Panalytical). Peptides (300 or 600 µM) were titrated at 25° C. by sequential injections (usually 2 µl each) into an SC solution (30 or 60 µM). Data were corrected for heat of injection by subtracting the signal of the titration of peptides into proteiN-free buffer solution (Hepes 10 mM pH 7.4, NaCl 0.15 M, EDTA 3 mM). Each titration was performed at least twice. Analyses of experimental data were performed following a classical treatment with the AFFINImeter software (https://www.affinimeter.com; S4S, Santiago de Compostela, Spain). In addition, kinetic information was obtained in some cases with kinITC as implemented in the software AFFINImeter.
All newly synthesized peptides were tested for their interaction with ^EcSC by ITC at 25° C. As a general rule, all thermodynamic profiles reveal an exothermic interaction, and a non-favorable entropic component. The resulting negative Gibb’s free energies characterize a spontaneous interaction. The analysis of raw data by the Affinimeter® software also gave access to kinetics rate constant of the interaction.

T1 sequence (P0A988 whole entry): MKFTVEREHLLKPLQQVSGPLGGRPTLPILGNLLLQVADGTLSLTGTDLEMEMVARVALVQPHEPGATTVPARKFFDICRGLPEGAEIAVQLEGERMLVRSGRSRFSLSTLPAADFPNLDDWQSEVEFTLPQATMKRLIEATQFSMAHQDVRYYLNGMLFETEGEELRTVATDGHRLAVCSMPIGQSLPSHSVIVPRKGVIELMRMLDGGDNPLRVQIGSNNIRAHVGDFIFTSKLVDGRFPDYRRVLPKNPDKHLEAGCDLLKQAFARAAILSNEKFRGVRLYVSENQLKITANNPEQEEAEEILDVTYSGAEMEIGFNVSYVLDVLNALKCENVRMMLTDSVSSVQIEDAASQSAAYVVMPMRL

Row | Compound | ΔG (kcal mol^-1) | Kd | kon
1 | COc1ccc(NC(=O)N[C@@H](CCC(N)=O)C(=O)N[C@@H](CC2CCCCC2)C(=O)N(C)[C@@H](CC(=O)O)C(=O)N[C@@H](CC(C)C)C(=O)N[C@@H](Cc2ccc(Cl)c(Cl)c2)C(=O)O)cc1 [P39] ({NH(4-MeO-phenyl)-CO}-Q[Cha][NMeD]L[Phe(3,4-Cl2)]-OH) | -9.0 (± 0.01) kcal mol^-1 | 266 nM | 42000 M⁻¹ s⁻¹
2 | CC(=O)N[C@@H](CCC(N)=O)C(=O)N[C@@H](CC1CCCCC1)C(=O)N(C)[C@@H](CC(=O)O)C(=O)N[C@@H](CC(C)C)C(=O)N[C@@H](Cc1ccc(F)c(F)c1)C(=O)O [P40] (Ac-Q[Cha][NMeD]L[Phe(3,4-F2)]-OH) | -9.3 (± 0.02) kcal mol^-1 | 148 nM | 56000 M⁻¹ s⁻¹
3 | CC(C)C[C@H](NC(=O)[C@H](CC(=O)O)N(C)C(=O)[C@H](CC1CCCCC1)NC(=O)[C@H](CCC(N)=O)NC(=O)/C=C/c1ccc(F)cc1)C(=O)N[C@@H](Cc1ccc(F)c(F)c1)C(=O)O [P41] ({Cinnamoyl(4-F)}-Q[Cha][NMeD]L[Phe(3,4-F2)]-OH) | – | 99 nM | 51000 M⁻¹ s⁻¹
4 | CC(=O)N[C@@H](CCC(N)=O)C(=O)N[C@@H](CC1CCCCC1)C(=O)N(C)[C@@H](CC(=O)O)C(=O)N[C@@H](CC(C)C)C(=O)N1CCC[C@H]1C(=O)N[C@@H](CC(C)C)C(=O)O [P42] (Ac-Q[Cha][NMeD]LPL-OH) | -9.0 (± 0.2) kcal mol^-1 | 263 nM | 100000 M⁻¹ s⁻¹
5 | CC(C)C[C@H](NC(=O)[C@@H]1CCCN1C(=O)[C@H](CC(C)C)NC(=O)[C@H](CC(=O)O)NC(=O)[C@H](CC1CCCCC1)NC(=O)[C@H](CCC(N)=O)NC(=O)/C=C/c1ccccc1)C(=O)O [P43] (X6-Q[Cha]DLPL-OH) | – | 132 nM | 60000 M⁻¹ s⁻¹
6 | CC(C)C[C@H](NC(=O)[C@@H]1CCCN1C(=O)[C@H](CC(C)C)NC(=O)[C@H](CC(=O)O)N(C)C(=O)[C@H](CC1CCCCC1)NC(=O)[C@H](CCC(N)=O)NC(=O)/C=C/c1cccnc1)C(=O)O [P44] ({Acryloyl(3-(3-pyridyl),E)}-Q[Cha][NMeD]LPL-OH) | -9.2 (± 0.1) kcal mol^-1 | 177 nM | 63000 M⁻¹ s⁻¹
7 | CC(=O)N[C@@H](CCC(N)=O)C(=O)N[C@@H](CC1CCCCC1)C(=O)N(C)[C@@H](CC(=O)O)C(=O)N[C@@H](CC(C)C)C(=O)N1CCC[C@H]1C(=O)N[C@@H](Cc1ccccc1)C(=O)O [P45] (Ac-Q[Cha][NMeD]LPF-OH) | -9.7 (± 0.2) kcal mol^-1 | 81 nM | 60000 M⁻¹ s⁻¹
8 | CC(C)C[C@H](NC(=O)[C@H](CC(=O)O)N(C)C(=O)[C@H](CC1CCCCC1)NC(=O)[C@H](CCC(N)=O)NC(=O)/C=C/c1cccnc1)C(=O)N1CCC[C@H]1C(=O)N[C@@H](Cc1ccccc1)C(=O)O [P46] ({Acryloyl(3-(3-pyridyl),E)}-Q[Cha][NMeD]LPF-OH) | -10.2 (± 0.1) kcal mol^-1 | 36 nM | 140000 M⁻¹ s⁻¹
9 | CC(=O)N[C@@H](CCC(N)=O)C(=O)N[C@@H](CC1CCCCC1)C(=O)N[C@@H](CC(=O)O)C(=O)N[C@@H](CC(C)C)C(=O)N1C(C(=O)N[C@@H](CC(C)C)C(=O)O)CC2CCCCC21 (stereo partly drawn) [P47] (Ac-Q[Cha]DL[ξOic]L-OH) | – | – | 71000 M⁻¹ s⁻¹
10 | CC(=O)N[C@@H](CCC(N)=O)C(=O)N[C@@H](CC1CCCCC1)C(=O)N[C@@H](CC(=O)O)C(=O)N[C@@H](CC(C)C)C(=O)N1[C@H](C(=O)N[C@@H](Cc2ccccc2)C(=O)O)C[C@@H]2CCCC[C@@H]21 [P48] (Ac-Q[Cha]DL[Oic]F-OH) | -9.5 (± 0.3) kcal mol^-1 | 120 nM | 55000 M⁻¹ s⁻¹
11 | CC(C)C[C@H](NC(=O)[C@H](CC(=O)O)N(C)C(=O)[C@H](CC1CCCCC1)NC(=O)[C@H](CCC(N)=O)NC(=O)/C=C/c1cccnc1)C(=O)N1[C@H](C(=O)N[C@@H](Cc2ccccc2)C(=O)O)C[C@@H]2CCCC[C@@H]21 [P49] ({Acryloyl(3-(3-pyridyl),E)}-Q[Cha][NMeD]L[Oic]F-OH) | -9.5 (± 0.1) kcal mol^-1 | 118 nM | 47000 M⁻¹ s⁻¹
